Values joined by “and” are separate entries in the source; they are usually repeats but may differ in a detail not shown here. Identical values can stand only once.
System: eIF2-GTP-Met-tRNAi ternary complex
Experiment: Ternary complex assay (dual luciferase, firefly/renilla ratio) in stable KLN-tTA/pBISA-DL(ATF-4) cells; HTS and hit confirmation
Type: cell-based, mouse
Design: Activity 10 uM / Activity 2.5 uM / Activity 5 uM: unit not given here
Settings: for Activity 2.5 uM: compound at 2.5 uM; for Activity 2.5 uM / Activity 10 uM / Activity 5 uM: confirmed hits of the screen (Table 5); for Activity 10 uM: compound at 10 uM; for Activity 5 uM: compound at 5 uM
From the text: For assay development, a bi-directional plasmid was designed in which a common promoter/enhancer complex drives the transcription of firefly luciferase (F-luc) ORF fused to the 5′ untranslated region (UTR) of ATF-4, and of the renilla luciferase (R-luc) ORF fused to a 90-nucleotide 5′ UTR derived from the plasmid (FIG. 6A). Because the tetracycline-regulated transactivator ((tTA), required for driving transcription from this vector) is not normally expressed in the mammalian cells, stable KLN cancer cells were constructed that expressed tTA (KLN-tTA).
The KLN-tTA colonies that drove expression of reporter genes from pBISA-DL plasmid were selected by transient transfection and dual luciferase assay. One of these KLN-tTA cell lines was transfected with the pBISA-DL^(ATF-4) expression vector, stable colonies were selected by dual luciferase assay and expanded. To determine if reduced availability of the eIF2*GTP*Met-tRNAi ternary complex increased the translation of firefly luciferase and decreased translation of renilla luciferase, selected KLN-tTA/pBISA-DL^(AFT-4) colonies were treated with thapsigargin (TG) or tunicamycin (TU), two agents known to cause phosphorylation of eIF2α.
This assay was then adapted for high throughput screening in 96 and 384 well plates. This was done by evaluating the cell density, length of exposure to compounds, DMSO tolerance and optimum firefly and renilla substrate. We then challenged these cells with thapsigargin or DMSO. […] Cell-based assays usually have higher variation than homogeneous in vitro assays due to position effect in the plate, and other variables associated with handling of cells and the plates.
Screening was conducted in 384 well white opaque plates (Nalge Nunc), 100 μl volume RPMI+10% fetal bovine serum. Cells were plated at the sub-confluent density of 10,000 cells/well, and allowed to attach for a period of 16-18 hours at 37° C., 5% CO2. Compounds were added as 1 μl of a 1 mM DMSO stock solution for a final screening concentration of 10 μM, using low-volume tips for transfer (Molecular Bioproducts). Cells were then incubated in the presence of compound for an additional sixteen hours, again at 37° C., 5% CO2. Following incubation 70 μl of the culture medium was removed from each well to allow for reagent addition and plates were allowed to equilibrate to room temperature for thirty minutes. Firefly luciferase reporter activity was then read by the addition of thirty microliters of Dual Glo Luciferase reagent (Promega), followed by one hour incubation at room temperature to allow for adequate signal buildup. Luminescence counting was conducted on a Microbeta Trilux using a 1 second read time. Renilla luciferase reporter activity was measured following addition of 30 μl Stop and Glo Luciferase reagent (Promega) and incubation identical to the one carried out for the firefly luciferase one.
Compound scores were interpreted as firefly luciferase activity divided by renilla luciferase activity, normalized to the plate's DMSO control. […] All data analysis was conducted using the BioAssay HTS software package (CambridgeSoft).
102,709 compounds in the NCI Open Chemical Repository were then screened using this HTS assay. […] Initial hits were confirmed by repeating the same dual luciferase assay in 96 well plates. Briefly, 20,000 cells/well were plated in triplicate for each concentration (10, 5 and 2.5 μM) of the compounds.

Compound	Activity 2.5 uM	Activity 10 uM	Active or inactive N,N′-diarylurea (ternary complex assay) (designation in figure legend)	Activity 5 uM
CCN(CC)C(=S)[S-].CCN(CC)C(=S)[S-].[Cu+2] [Compound 1337]	7.15	–	–	–
Cc1nc(Nc2cccc(Cl)c2)c2cnn(-c3ccc(Cl)cc3)c2n1 [Compound 1626]	0.79	5.31	–	–
O=C(Nc1ccc(Cl)c(C(F)(F)F)c1)Nc1ccc2nnsc2c1 [Compound 1780]	–	–	active	–
c1ccc(NNc2ccc3ccccc3n2)cc1 [Compound 1874]	4.27	3.99	–	–
O=C(CCl)Nc1cc(Cl)ccc1Cl [Compound 8275]	0.81	–	–	–
Cc1ccc2c(c1)sc(-c1ccc(N(C)C)cc1)[n+]2C.[Cl-] [Compound 11235]	4.88 and 7.3	–	–	–
CCCCCCCC[N+](CCCC)(CCCC)CCCC.O=C([O-])CCl [Compound 12134]	8.83	–	–	–
CCOC(=O)N(C(=O)c1ccc([As]=O)cc1)C(=O)c1ccc([As]=O)cc1 (stereo not drawn) [Compound 12750]	1.79	4.9	–	–
CCN(CC)CCCC(C)n1c(SC)nc2cc(Cl)ccc21 (stereo not drawn) [Compound 13268]	1.46	3.18	–	–
CCCCCCCCC(N)CCCCCCCC.Cl [Compound 14209]	0.85	14.32	–	–
Cc1cc(/C=C/C2CCC3CC(C)CCC3N2CCO)c(C)n1-c1ccccc1 (stereo not drawn) [Compound 14238]	1.37	3.02	–	–
CC(=O)NC1=CC(=O)C=CC1=Nc1ccc(N(C)C)cc1C [Compound 14739]	1.12	4.06	–	–
Cc1c(Cl)ccc2c(C(O)CNCc3ccccc3)cc(-c3ccc(Cl)cc3)nc12 (stereo not drawn) [Compound 14755]	0.68	6.63	–	–
CC(C)Nc1nc(NC(C)C)c2cnn(-c3ccccc3)c2n1 [Compound 19143]	1.72	3.2	–	–
CCCCCCCCCCCCCCCCCC[n+]1ccc(C(C)CC)cc1.[Cl-] (stereo not drawn) [Compound 19763]	4.63	13.29	–	–
CCO[C@@H]([CH2][Hg][Cl])[C@](C)([CH2][Hg][Cl])OCC [Compound 21293]	3.16	–	–	–
CN(C)c1ccc(C2(Cl)c3ccccc3N(Cc3ccccc3)c3ccccc32)cc1.Cl [Compound 21533]	2.03	8.88	–	–
O=C(C=Cc1ccc([N+](=O)[O-])o1)C=Cc1ccc([N+](=O)[O-])o1 [Compound 21620]	0.74	16.28	–	–
c1ccc(-c2ccc(-c3cnc(-c4ccc(-c5ccccc5)cc4)o3)cc2)cc1 [Compound 24863]	1.87	3.22	–	–
CCCCN(CCCC)CCC(O)(c1ccc(OC)c2ccccc12)C(O)(CCN(CCCC)CCCC)c1ccc(OC)c2ccccc12.Cl (stereo not drawn) [Compound 26101]	0.78	4.13	–	–
Br.CCC1=C(C)/C(=C/c2[nH]c(C)c(CC)c2C)N=C1C [Compound 26672]	1.44	57.61	–	–
CCCCCCCCCCCCCCCC[N+](C)(C)CCCCCC(=O)OC.[Br-] [Compound 26847]	1.83	8.15	–	–
O=C1C=C(N2CC2)C(=O)C(N2CC2)=C1N1CC1 [Compound 29215]	36.4	–	–	–
Clc1ccc(-c2nc(-c3ccccc3)[nH]c2-c2ccc(Cl)c(Cl)c2)cc1Cl [Compound 30759]	0.88	6.9	–	–

Compound	Activity 2.5 uM	Activity 10 uM	Active or inactive N,N′-diarylurea (ternary complex assay) (designation in figure legend)	Activity 5 uM
COc1ccc2nc3cc(Cl)ccc3c(NCCCCN(C)C)c2c1.Cl [Compound 32929]	0.35	5.76	–	–
Cc1cc[n+](C2CCC3(C)C(=CCC4C3CCC3(C)C(C(C)CCCC(C)C)CCC43)C2)cc1.Cc1ccc(S(=O)(=O)[O-])cc1 (stereo not drawn) [Compound 32994]	2.83	6.52	–	–
CC(C)CCCC(C)C1CCC2C3CC=C4CC([n+]5cccc6ccccc65)CCC4(C)C3CCC12C.Cc1ccc(S(=O)(=O)[O-])cc1 (stereo not drawn) [Compound 32999]	2.41	6.87	–	–
COc1ccc2nc(CCc3ccccc3)ccc2c1 [Compound 35424]	2.55	3.07	–	–
CN1c2ccccc2C(c2ccccc2)c2ccc(Nc3ccccc3)cc21.Cl (stereo not drawn) [Compound 35730]	5.35	6.76	–	–
Cc1ccc(C(CN(C)C)C(=O)c2ccccc2)cc1C.Cl (stereo not drawn) [Compound 36684]	0.76	4.2	–	–
O=C1c2ccccc2C(=O)C2CC(c3ccccc3)=CCC12 (stereo not drawn) [Compound 38062]	2.61	5.58	–	–
CC1=CC(=O)C(C(C)C)=CC1=Nc1ccc(N(C)C)cc1 [Compound 39901]	1.41	4.1	–	–
CC(=O)Nc1ccccc1[As](O[As](c1ccccc1)c1ccccc1NC(C)=O)c1ccccc1 (stereo not drawn) [Compound 42108]	–	3.7	–	–
O=C(Nc1ccc2ccccc2c1)c1cc2ccccc2cc1O [Compound 42112]	3.76	3.76	–	–
CCN1/C(=C/c2cc(C)nc(-c3ccccc3)[n+]2C)C=Cc2ccccc21.[Cl-] [Compound 43683]	3.73	5.26	–	–
CC(=O)Nc1cc(OC(C)=O)c2ccccc2c1OC(C)=O [Compound 45171]	3.08	–	–	–
COc1ccc2c3c(ccc2c1)[C@@H]1C/C(=C(\OC(C)=O)C(F)(F)F)C(=O)[C@@]1(C)CC3 [Compound 45226]	3.03	7.27	–	–
CC(=O)OC1CCC2(C)C3CCC4(C)C(CCC4(Br)C(=O)CBr)C3CC(Br)C2(Br)C1 (stereo not drawn) [Compound 45884]	0.47	16.23	–	–
Oc1cccc(-c2ccc(-c3ccccc3)cc2)c1 [Compound 47145]	3.4	5.16	–	–
N#C/C(=C(\c1ccccc1)c1ccccn1)c1ccccc1 [Compound 50915]	1.11	7.81	–	–
O=Nc1c(O)ccc2ccccc12.[Fe].[Na+] [Compound 51522]	1.66	10.99	–	–
Cc1cc2c(C(C)C)c(O)c(O)c(C=Nc3cc(C(F)(F)F)ccc3Cl)c2c(O)c1-c1c(C)cc2c(C(C)C)c(O)c(O)c(C=Nc3cc(C(F)(F)F)ccc3Cl)c2c1O [Compound 52531]	0.8	5.18	–	–
O=C(Nc1ccc(Cl)cc1)C(Cl)C(Cl)c1ccccc1 (stereo not drawn) [Compound 54895]	–	4.975	–	4.288
O=C(/C=C/c1ccc(Cl)cc1)CC(Cl)c1ccc(Cl)cc1 (stereo not drawn) [Compound 54905]	–	16.011	–	11.56
CCCCCCCCCCCCCCCC[N+]1(C)CC2CCCCC2C1 (stereo not drawn) [Compound 55237]	–	6.6	–	3.4
CCCCCCCCCCCCCCCC[N+]1(CCCCCCCCCC)CC2CCCCC2C1.[I-] (stereo not drawn) [Compound 55240]	–	5.2	–	4.2
Cc1ccc(-c2cc(-c3ccccc3)[s+]c3ccc(C)cc23)cc1 [Compound 55867]	–	3.2	–	1.1
C[N+](C)=C1C=CC(=C2C=C(c3ccccc3)Oc3ccccc32)C=C1 [Compound 55869]	–	13.613	–	13.24

Source: patent publication US9932300B2, “N,N′-diarylurea compounds and N,N′-diarylthiourea compounds as inhibitors of translation initiation” (President and Fellows of Harvard College, priority 2009, dated 2018)
